In PMC9313321 (Biomedicines, 2022) one finds inhibition, Aβ inhibition and EC50 data, which are given here for three compounds.

One assay has as its target T1, Aβ42 self-aggregation (Homo sapiens, UniProt P05067).
T1 construct: Beta-amyloid protein, fragment 1-42; purchased GeneCust
Briefly: biochemical. The class given is biochemical. The note with it: read-out: Aβ42 Self-Aggreg. Inhib. On the procedure:
(§1) The inhibition of Aβ42 aggregation and Cu(II)-induced Aβ42 aggregation, carried out by the RIV–BIM hybrids, was studied using a reported method based on the fluorescence emission of thioflavin T [52, 53].
(§2) Solutions of phosphate buffer 0.215 M at pH = 8.00, Na2CO3 300 μM in distilled water, NaOH 250 mM in distilled water, glycine-NaOH 50 mM buffer at pH = 8.50 and CuCl2 240 μM in phosphate buffer were prepared. Stock solutions of […] of the RIV–BIM compounds were prepared in MeOH (with 20% DMSO). Working solutions of 240 μM of the RIV–BIM hybrids were prepared by the proper dilution of their stock solutions with phosphate buffer. A working solution of glycine-NaOH 50 mM buffer at pH = 8.50 containing 5 μM of thioflavin T (ThT) was prepared daily. Aβ42 (GeneCust) was pre-treated with 1,1,1,3,3,3-hexafluoro-2-propanol (HFIP) to obtain a solution of 0.149 mM by brief sonication and vortexing, which was kept covered overnight at room temperature. From the Aβ42 solution, aliquots of 250 μL were placed into Eppendorf tubes under ice and set to evaporate inside a hood at room temperature overnight. When the contents of the Eppendorf tubes were dried, the Aβ42 aliquots were stored at −20 °C until needed. To obtain the Aβ42 working solution, the Aβ42 aliquots were dissolved with a freshly prepared mixture of 69.5 μL of CH3CN/Na2CO3 (300 μM)/NaOH (250 mM) (48.3/48.3/3.4, v/v/v) by brief sonication and vortexing to obtain an Aβ42 solution of 531.24 μM. To this solution, 392.5 μL of phosphate buffer was added, achieving an Aβ42 working solution of 80 μM. To prepare the incubations, three replicates of Aβ42 alone (30 μL Aβ42 80 μM + 30 μL phosphate buffer), Aβ42 with RIV–BIM (30 μL Aβ42 80 μM + 10 μL RIV–BIM 240 μM + 20 μL phosphate buffer), Aβ42 with copper (30 μL Aβ42 80 μM + 10 μL CuCl2 240 μM + 20 μL phosphate buffer) and Aβ42 with copper and RIV–BIM (30 μL Aβ42 80 μM + 10 μL CuCl2 240 μM + 10 μL RIV–BIM 240 μM + 10 μL phosphate buffer) were placed in Eppendorfs. To obtain the blank solutions, a similar number of Eppendorfs, replacing Aβ42 with phosphate buffer, were prepared. Incubations were performed in a water bath at 37 °C with agitation for 24 h. Afterwards, 180 μL of glycine-NaOH 50 mM buffer at pH = 8.50 containing 5 μM of ThT was added to each Eppendorf and then they were vortexed. Finally, 200 μL of solution from each Eppendorf was placed in the wells of a microplate and fluorescence measurements were monitored using a Spectramax Gemini EM (Molecular Devices) fluorimeter with an excitation wavelength of 446 nm and an emission wavelength of 485 nm. Blank signals were subtracted from the corresponding samples. The fluorescence intensity of the Aβ42 + RIV–BIM solution was compared to that of the Aβ42 solution to obtain the inhibition of Aβ42 self-aggregation for each compound. The fluorescence intensity of the Aβ42 + Cu(II) + RIV–BIM solution was compared to that of the Aβ42 + Cu(II) solution to obtain the inhibition of the Cu(II)-induced Aβ42 aggregation for each hybrid.
(§3) The anti-amyloidogenic capacity of the compounds was assessed in vitro using the thioflavin T (ThT) method. To record fluorescence emission, excitation (446 nm) and emission (485 nm) wavelengths were used. When ThT binds to amyloid fibrils, an increase in absorbance and emission of this dye occurs with concomitant red shifts of the respective spectra. The percent of inhibition of Aβ42 aggregation is shown in Table 1, and the assays were performed in the presence of 20 μM of inhibitor. These concentration conditions were used to overcome solubility problems of some compounds in the aqueous phosphate buffer working medium. […]. […]

Assay [1] has as its target T2, Cu(II)-induced Aβ42 aggregation (Homo sapiens, UniProt P05067).
T2 construct: Beta-amyloid protein, fragment 1-42; purchased GeneCust
Briefly: Inhibition of Cu(II)-induced Aβ42 aggregation (thioflavin T fluorescence). The class given is biochemical. Conditions: read-out: Aβ42 Cu-Ind. Aggreg. Inhib. On the procedure:
as §1, §2, §3

In another assay the test system is Aβ. Set-up: method as in PMID 32781220. The note with it: 50 μM concentration; cited from earlier work.
A short description of assay [2]: Radical scavenging activity (DPPH method). The note with it: read-out: Antioxid. EC50, 30 min, absorbance 517 nm. A general note: DPPH is a stable violet radical that fades when it is reduced.
Protocol: To determine the radical scavenging activity (antioxidant activity) of the novel RIV–BIM hybrids, the DPPH method was performed as previously described in the literature [49]. Working solutions of 20 mg of the ligands were prepared daily in 10 mL of MeOH (with a 10% of DMSO). A working solution of 2 mg DPPH in 100 mL MeOH was prepared daily, and its absorbance was checked to be between 0.75 and 1.00 (a.u.). […] Each one of the calibrate points was kept for 30 min under darkness to allow the ligands to exert their antioxidant effects. After 30 min, an auto-zero was performed with MeOH in both sample and reference cells, using a UV–Vis spectrophotometer. […] The antioxidant activity (%AA) for each point was calculated using the following equation: %AA=ADPPH−Aligand/ADPPH×100
The radical scavenging activity of the RIV–BIM compounds was determined by a spectrophotometric method involving the 2,2-diphenyl-1-picrylhydrazyl (DPPH) free radical [35, 64].

T1 sequence (P05067 672-713 limits assumed): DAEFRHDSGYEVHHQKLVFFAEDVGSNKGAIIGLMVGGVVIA
T2 sequence (P05067 672-713 limits assumed): as above

On to `COc1cc(/C=C/C(=O)CC(=O)/C=C/c2ccc(O)c(OC)c2)ccc1O` [Curcumin, reference compound], for which the figures for the inhibition at 20 µM (at Aβ42 self-aggregation; in assay [1]) were 65.7% and 62.7%, respectively. For the same compound, the Aβ inhibition in the assay on Aβ is reported as 62%.
As usually defined, the EC50 is the concentration needed to bring the measured effect to its halfway point. Regarding `Cc1c(O)c(=O)ccn1C` [DMHP, reference compound], in assay [2], the EC50 amounted to 157 ± 8 µM.
On to `Nc1c2c(nc3ccccc13)CCCC2` [Tacrine, reference compound], for which the inhibition at 20 µM at Aβ42 self-aggregation was 28.1%.
